Experimental data reported in patent US20230287044A1, “NOVEL ANTIBACTERIAL PEPTIDE AND USE THEREOF” (priority 2020, published 2023).
≈ marks a conversion by molar mass, not a printed value. Square brackets hold non-standard residues; d marks the D form. Ends that are not written are not given here. Peptide text beside a SMILES is read from it. * marks the point of attachment. dTrp(5-OMe) = COc1ccc2[nH]cc(C[C@@H](N)C(=O)O)c2c1; Decanoyl = CCCCCCCCCC(=O)*

Legend:
[1] = tested on: MRAB (A. baumannii) ATCC BAA 1605; format: cell-based, Acinetobacter baumannii; conditions: ATCC BAA 1605, 18 h
Method: (§1) The minimum growth inhibitory concentrations of the antibacterial peptides of the present invention weremeasured, and the results are shown in Table 3 below.
(§2) Specifically, the strains were grown in CAMHB until the midlog phase, and then diluted with PBS buffer to 1× 10^6 cfu/ml to prepare the bacterial solution, and the antibacterial peptide prepared in Example 1above was diluted with CAMHB to 80 µM, 40 µM, 20 µM, 10 µM, 5 µM, 2.5 µM, 1.25 µM and 0.63 µM, and then the bacterial solution was treated with the same volume.
(§3) The results are the average value of three independent experiments.

[2] = tested on: MRPA (P. aeruginosa) CCARM 2180; format: cell-based, Pseudomonas aeruginosa; conditions: CCARM 2180, 18 h
Method: as §1, §2, §3

[3] = tested on: VRE (E. faecalis) ATCC 51575; format: cell-based, Enterococcus faecalis; conditions: ATCC 51575, 18 h
Method: as §1, §2, §3

[4] = tested on: MRSA (S. aureus) KCCM 40510; format: cell-based, Staphylococcus aureus; conditions: KCCM 40510, 18 h
Method: as §1, §2, §3

Row | Molecule | MIC MRAB (A. baumannii) ATCC BAA 1605 [1] [µM] | MIC MRPA (P. aeruginosa) CCARM 2180 [2] [µM] | MIC VRE (E. faecalis) ATCC 51575 [3] [µM] | MIC MRSA (S. aureus) KCCM 40510 [4] [µM]
1 | CC[C@@H](C)[C@@H](NC(=O)[C@@H](Cc1c[nH]c2ccccc12)NC(=O)[C@@H](CCCNC(=N)N)NC(=O)[C@@H](CCCNC(=N)N)NC(=O)[C@H](N)CCCNC(=N)N)C(=O)N[C@H](Cc1c[nH]c2ccccc12)C(=O)N[C@@H](C(=O)N[C@H](CC(C)C)C(=O)N[C@H](Cc1c[nH]c2ccccc12)C(N)=O)C(C)C [KSH73, rrrwiwvlw] (H-[dR][dR][dR][dW][dI][dW][dV][dL][dW]-NH2; N-terminus assumed) | 2.5 (≈ 3.42 µg/mL) | 2.5 (≈ 3.42 µg/mL) | 1.25 (≈ 1.71 µg/mL) | 1.25 (≈ 1.71 µg/mL)
2 | CC[C@@H](C)[C@@H](NC(=O)[C@@H](Cc1c[nH]c2ccccc12)NC(=O)[C@H](NC(=O)[C@@H](CC(C)C)NC(=O)[C@H](N)Cc1c[nH]c2ccccc12)[C@H](C)CC)C(=O)NCC(=O)N[C@H](CC(C)C)C(=O)N[C@H](CCCNC(=N)N)C(=O)N[C@H](CCCCN)C(=O)N[C@H](CCCCN)C(=O)N[C@H](CCCNC(=N)N)C(N)=O [KSH I, wliwiglrkk r] (H-[dW][dL][dI][dW][dI]G[dL][dR][dK][dK][dR]-NH2; N-terminus assumed) | 1.25 (≈ 1.83 µg/mL) | 10 (≈ 14.7 µg/mL) | 2.5 (≈ 3.67 µg/mL) | 2.5 (≈ 3.67 µg/mL)
3 | CC[C@@H](C)[C@@H](NC(=O)[C@@H](Cc1c[nH]c2ccccc12)NC(=O)[C@@H](CCCCN)NC(=O)[C@@H](CCCNC(=N)N)NC(=O)[C@H](N)CCCNC(=N)N)C(=O)N[C@H](Cc1c[nH]c2ccccc12)C(=O)N[C@H](Cc1c[nH]c2ccccc12)C(=O)N[C@H](CC(C)C)C(=O)N[C@H](Cc1c[nH]c2ccccc12)C(=O)N[C@H](CCCCN)C(N)=O [KSH51, rrkwiwwlwk] (H-[dR][dR][dK][dW][dI][dW][dW][dL][dW][dK]-NH2; N-terminus assumed) | 1.25 (≈ 1.95 µg/mL) | 5 (≈ 7.78 µg/mL) | 1.25 (≈ 1.95 µg/mL) | 1.25 (≈ 1.95 µg/mL)
4 | CC(C)[C@@H](NC(=O)[C@@H](Cc1c[nH]c2ccccc12)NC(=O)[C@H](NC(=O)[C@H](NC(=O)[C@@H](Cc1c[nH]c2ccccc12)NC(=O)[C@@H](CCCNC(=N)N)NC(=O)[C@@H](CCCNC(=N)N)NC(=O)[C@H](N)CCCNC(=N)N)C(C)C)C(C)C)C(=O)N[C@H](Cc1c[nH]c2ccccc12)C(=O)N[C@H](Cc1c[nH]c2ccccc12)C(N)=O [KSH83, rrrwvvwvww] (H-[dR][dR][dR][dW][dV][dV][dW][dV][dW][dW]-NH2; N-terminus assumed) | 10 (≈ 15.3 µg/mL) | 5 (≈ 7.64 µg/mL) | 1.25 (≈ 1.91 µg/mL) | 1.25 (≈ 1.91 µg/mL)
5 | CC(C)[C@@H](NC(=O)[C@@H](Cc1c[nH]c2ccccc12)NC(=O)[C@@H](CCCNC(=N)N)NC(=O)[C@@H](CCCNC(=N)N)NC(=O)[C@H](N)CCCNC(=N)N)C(=O)N[C@H](Cc1c[nH]c2ccccc12)C(=O)N[C@@H](C(=O)N[C@@H](C(=O)N[C@H](Cc1c[nH]c2ccccc12)C(=O)N[C@H](Cc1c[nH]c2ccccc12)C(N)=O)C(C)C)C(C)C [KSH81, rrrwvwvvww] (H-[dR][dR][dR][dW][dV][dW][dV][dV][dW][dW]-NH2; N-terminus assumed) | 10 (≈ 15.3 µg/mL) | 5 (≈ 7.64 µg/mL) | 1.25 (≈ 1.91 µg/mL) | 1.25 (≈ 1.91 µg/mL)
6 | CC(C)[C@@H](NC(=O)[C@H](N)Cc1c[nH]c2ccccc12)C(=O)N[C@@H](C(=O)N[C@H](Cc1c[nH]c2ccccc12)C(=O)N[C@@H](C(=O)N[C@@H](C(=O)N[C@H](Cc1c[nH]c2ccccc12)C(=O)N[C@H](CCCCN)C(=O)N[C@H](CCCCN)C(=O)N[C@H](CCCCN)C(N)=O)C(C)C)C(C)C)C(C)C [KSH67, wvvwvvwkkk] (H-[dW][dV][dV][dW][dV][dV][dW][dK][dK][dK]-NH2; N-terminus assumed) | 1.25 (≈ 1.7 µg/mL) | 5 (≈ 6.78 µg/mL) | 0.63 (≈ 0.855 µg/mL) | 0.63 (≈ 0.855 µg/mL)
7 | CCCCCCCCCC(=O)NCCCC[C@@H](NC(=O)[C@@H](CCCCN)NC(=O)[C@@H](CCCNC(=N)N)NC(=O)[C@@H](CC(C)C)NC(=O)[C@@H](C)NC(=O)[C@H](NC(=O)[C@@H](Cc1c[nH]c2ccccc12)NC(=O)[C@@H](CC(C)C)NC(=O)[C@@H](CC(C)C)NC(=O)[C@H](N)Cc1c[nH]c2ccccc12)[C@H](C)CC)C(N)=O [KSH7, wllwialrkk] (H-[dW][dL][dL][dW][dI][dA][dL][dR][dK][dK](Decanoyl)-NH2; N-terminus assumed) | >40 | >40 | 10 (≈ 14.8 µg/mL) | 10 (≈ 14.8 µg/mL)
8 | WVVWVYVRKKR-NH2 [LSH6] | 2.5 | 40 | 10 | 10
9 | WLVYVWLRKKR-NH2 [LSH2] | 1.25 | 20 | 5 | 5
10 | VWVWVWVRKKR-NH2 [LSH99] | 2.5 | >40 | 10 | >40
11 | CC[C@H](C)[C@H](NC(=O)[C@H](Cc1c[nH]c2ccccc12)NC(=O)[C@@H](NC(=O)[C@H](CC(C)C)NC(=O)[C@@H](N)Cc1c[nH]c2ccccc12)C(C)C)C(=O)N[C@@H](Cc1c[nH]c2ccccc12)C(=O)N[C@@H](CCCNC(=N)N)C(=O)N[C@@H](CCCCN)C(=O)N[C@@H](CCCCN)C(=O)N[C@@H](CCCNC(=N)N)C(N)=O [LSH28] | 5 (≈ 7.35 µg/mL) | 40 (≈ 58.8 µg/mL) | 10 (≈ 14.7 µg/mL) | 10 (≈ 14.7 µg/mL)
12 | CC(C)[C@@H](NC(=O)[C@@H](Cc1c[nH]c2ccccc12)NC(=O)[C@@H](CCCNC(=N)N)NC(=O)[C@@H](CCCNC(=N)N)NC(=O)[C@H](N)CCCNC(=N)N)C(=O)N[C@H](Cc1c[nH]c2ccccc12)C(=O)N[C@@H](C(=O)N[C@@H](C(=O)N[C@H](Cc1c[nH]c2ccccc12)C(=O)N[C@H](CCCCN)C(N)=O)C(C)C)C(C)C [KSH57, rrrwvwvvwk] (H-[dR][dR][dR][dW][dV][dW][dV][dV][dW][dK]-NH2; N-terminus assumed) | 5 (≈ 7.35 µg/mL) | 20 (≈ 29.4 µg/mL) | 20 (≈ 29.4 µg/mL) | 20 (≈ 29.4 µg/mL)
13 | CC[C@@H](C)[C@@H](NC(=O)[C@@H](Cc1c[nH]c2ccccc12)NC(=O)[C@@H](CC(C)C)NC(=O)[C@@H](CC(C)C)NC(=O)[C@H](N)Cc1c[nH]c2ccc(OC)cc12)C(=O)NCC(=O)N[C@H](CC(C)C)C(=O)N[C@H](CCCNC(=N)N)C(=O)N[C@H](CCCCN)C(=O)N[C@H](CCCCN)C(=O)N[C@H](CCCNC(=N)N)C(N)=O [KSH15, wMllwiglrkkr] (H-[dTrp(5-OMe)][dL][dL][dW][dI]G[dL][dR][dK][dK][dR]-NH2; N-terminus assumed) | 1.25 (≈ 1.87 µg/mL) | 10 (≈ 15 µg/mL) | 2.5 (≈ 3.74 µg/mL) | 1.25 (≈ 1.87 µg/mL)
14 | CC(C)[C@@H](NC(=O)[C@@H](Cc1c[nH]c2ccccc12)NC(=O)[C@@H](Cc1c[nH]c2ccccc12)NC(=O)[C@H](NC(=O)[C@@H](Cc1c[nH]c2ccccc12)NC(=O)[C@@H](CCCNC(=N)N)NC(=O)[C@@H](CCCNC(=N)N)NC(=O)[C@H](N)CCCNC(=N)N)C(C)C)C(=O)N[C@H](Cc1c[nH]c2ccccc12)C(=O)N[C@H](Cc1c[nH]c2ccccc12)C(N)=O [KSH79, rrrwvwwvww] (H-[dR][dR][dR][dW][dV][dW][dW][dV][dW][dW]-NH2; N-terminus assumed) | 10 (≈ 16.1 µg/mL) | 2.5 (≈ 4.04 µg/mL) | 1.25 (≈ 2.02 µg/mL) | 1.25 (≈ 2.02 µg/mL)
15 | CC(C)[C@@H](NC(=O)[C@@H](Cc1c[nH]c2ccccc12)NC(=O)CNC(=O)[C@@H](CCCNC(=N)N)NC(=O)[C@@H](CCCNC(=N)N)NC(=O)[C@H](N)CCCNC(=N)N)C(=O)N[C@H](Cc1c[nH]c2ccccc12)C(=O)N[C@@H](C(=O)N[C@@H](C(=O)N[C@H](Cc1c[nH]c2ccccc12)C(=O)N[C@H](CCCCN)C(N)=O)C(C)C)C(C)C [KSH90, rrrgwvwvvwk] (H-[dR][dR][dR]G[dW][dV][dW][dV][dV][dW][dK]-NH2; N-terminus assumed) | 5 (≈ 7.63 µg/mL) | 5 (≈ 7.63 µg/mL) | 1.25 (≈ 1.91 µg/mL) | 1.25 (≈ 1.91 µg/mL)
